From the supplement of paper PMC11061612

Columns and labels:
Experiment in all cases: Bliss excess, mean over the matrix (fraction); higher = more synergy
[1] = test system: NCI-H2023 (Non-Small Cell Lung Carcinoma)
Method in brief: (§1)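 Cell lines in DMEM/F12 or RPMI with 10% FBS were plated in 1536-well plates, held 24 hours at 37°C, 5% CO2, then given two-drug dose matrices for 72 hours (DMSO typically 0.2%). Viability was read by CellTiter-Glo 2.0 luminescence and scaled as inhibition from 0 (vehicle wells) to 1 (blank wells). Combination Emax is the second-highest inhibition in the matrix; Bliss excess is observed combination effect minus expected EA + EB − EA·EB, EA and EB being single-agent effects.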

[2] = test system: SBC-5 (Small Cell Lung Carcinoma)
Method in brief: as §1

[3] = test system: SK-MEL-24 (Melanoma)
Method in brief: as §1

[4] = test system: HT-3 (Cervical Carcinoma)
Method in brief: as §1

[5] = test system: BC-1 (B-Cell Non-Hodgkin's Lymphoma)
Method in brief: as §1

[6] = test system: NCI-H1648 (Lung Adenocarcinoma)
Method in brief: as §1

[7] = test system: MDA-MB-175-VII (Breast Carcinoma)
Method in brief: as §1

[8] = test system: HT-1197 (Bladder Carcinoma)
Method in brief: as §1

[9] = test system: HT-144 (Melanoma)
Method in brief: as §1

[10] = test system: NCI-H2170 (Squamous Cell Lung Carcinoma)
Method in brief: as §1

[11] = test system: GCIY (Gastric Carcinoma)
Method in brief: as §1

[12] = test system: SNU-1 (Gastric Carcinoma)
Method in brief: as §1

[13] = test system: TOV-21G (Ovarian Carcinoma)
Method in brief: as §1

[14] = test system: KNS-62 (Squamous Cell Lung Carcinoma)
Method in brief: as §1

[15] = test system: OVKATE (Ovarian Carcinoma)
Method in brief: as §1

[16] = test system: MRK-nu-1 (Breast Carcinoma)
Method in brief: as §1

[17] = test system: NCI-H1975 (Lung Adenocarcinoma)
Method in brief: as §1

[18] = test system: RS4-11 (B-Lymphoblastic Leukemia)
Method in brief: as §1

[19] = test system: DK-MG (Glioblastoma)
Method in brief: as §1

[20] = test system: SUP-HD1 (Hodgkin's Lymphoma)
Method in brief: as §1

Row | SMILES | Bliss excess [1] | Bliss excess [2] | Bliss excess [3] | Bliss excess [4] | Bliss excess [5] | Bliss excess [6] | Bliss excess [7] | Bliss excess [8] | Bliss excess [9] | Bliss excess [10] | Bliss excess [11] | Bliss excess [12] | Bliss excess [13] | Bliss excess [14] | Bliss excess [15] | Bliss excess [16] | Bliss excess [17] | Bliss excess [18] | Bliss excess [19] | Bliss excess [20]
1 | Cc1c2c(nn1C)CSCc1cc(n(C)n1)CSc1cc(c3ccccc3c1)OCCCc1c(C(=O)O)n(C)c3c-2c(Cl)ccc13 [AZD5991] + CCN(CCO)CCCOc1ccc2c(Nc3cc(CC(=O)Nc4cccc(F)c4)[nH]n3)ncnc2c1 [AZD2811] (first compound max 1 µM, 7x7, partner max 1 µM) | 0.0307 | 0.0523 | 0.0258 | 0.162 | 0.0403 | 0.0051 | 0.0441 | -0.0381 | 0.0561 | 0.0348 | -0.0183 | 0.0586 | 0.0576 | 0.0156 | -0.09 | 0.0321 | 0.0047 | -0.0061 | -0.0543 | 0.0311
2 | CN(C)CCCOc1ccc(-c2ccc3ncc4c(c3c2)n(C2CCOCC2)c(=O)n4C)cn1 [AZD0156] + O=C(c1cc(Cc2n[nH]c(=O)c3ccccc23)ccc1F)N1CCN(C(=O)C2CC2)CC1 [Olaparib] (first compound max 3 µM, partner max 3 µM) | 0.0234 | 0.0732 | 0.0037 | 0.0386 | 0.0648 | 0.0271 | -0.0365 | -0.0404 | 0.0767 | 0.0947 | 0.0703 | 0.032 | -0.0054 | 0.0435 | 0.0008 | -0.0198 | 0.0548 | 0.104 | 0.0012 | -0.039
3 | COc1nnc2ccc(N3CCC(c4ccc(OCCN5CCN(C)C(=O)[C@H]5C)cc4)CC3)nn12 [AZD5153] + Cc1c2c(nn1C)CSCc1cc(n(C)n1)CSc1cc(c3ccccc3c1)OCCCc1c(C(=O)O)n(C)c3c-2c(Cl)ccc13 [AZD5991] (first compound max 1 µM, 7x7, partner max 1 µM) | -0.0217 | -0.0062 | -0.003 | 0.0362 | -0.0202 | -0.0712 | -0.0015 | 0.0698 | -0.0094 | -0.0283 | -0.0727 | 0.0194 | -0.0337 | -0.0459 | -0.0209 | 0.0346 | -0.0138 | 0.0102 | -0.0037 | -0.0414
4 | CN(C)CCCOc1ccc(-c2ccc3ncc4c(c3c2)n(C2CCOCC2)c(=O)n4C)cn1 [AZD0156] + CCN(CCO)CCCOc1ccc2c(Nc3cc(CC(=O)Nc4cccc(F)c4)[nH]n3)ncnc2c1 [AZD2811] (first compound max 1 µM, 7x7, partner max 1 µM) | 0.0066 | 0.0184 | -0.0401 | -0.039 | 0.0234 | -0.0327 | -0.018 | -0.0376 | 0.0066 | -0.0136 | -0.0301 | 0.093 | 0.0147 | -0.0213 | -0.0648 | 0.0186 | 0.0049 | 0.0512 | 0.0081 | 0.0327
5 | CN(CCO)CC[C@H](CSc1ccccc1)Nc1ccc(S(=O)(=O)NC(=O)c2ccc(N3CCC([C@@H](O)c4ccccc4-c4ccc(Cl)cc4)CC3)cc2)cc1S(=O)(=O)C(F)(F)F [AZD4320] + CN(C)CCCOc1ccc(-c2ccc3ncc4c(c3c2)n(C2CCOCC2)c(=O)n4C)cn1 [AZD0156] (first compound max 1 µM, 7x7, partner max 1 µM) | -0.0922 | -0.0481 | -0.0838 | -0.0251 | -0.0228 | -0.0326 | -0.0322 | -0.0506 | -0.0032 | -0.0054 | 0.0237 | 0.0192 | -0.0262 | -0.0566 | -0.104 | -0.0133 | -0.0414 | -0.0209 | -0.0539 | -0.0754
6 | CC1(C)CCC(CN2CCN(c3ccc(C(=O)NS(=O)(=O)c4ccc(NCC5CCOCC5)c([N+](=O)[O-])c4)c(Oc4cnc5[nH]ccc5c4)c3)CC2)=C(c2ccc(Cl)cc2)C1 [Venetoclax] + C1CN(CCC1(C(=O)N[C@@H](CCO)C2=CC=C(C=C2)Cl)N)C3=NC=NC4=C3C=CN4 [Capivasertib] (first compound max 1 µM, 7x7, partner max 3 µM) | -0.0449 | -0.041 | -0.0695 | -0.0231 | -0.011 | -0.0405 | -0.0175 | -0.0444 | -0.0575 | -0.0434 | -0.0778 | -0.0535 | -0.0533 | -0.0474 | -0.0458 | -0.0212 | -0.0362 | -0.003 | -0.0193 | -0.0636
7 | NC1(C(=O)N[C@@H](CCO)c2ccc(Cl)cc2)CCN(c2ncnc3[nH]ccc23)CC1 [Capivasertib] + C[C@@H]1COCCN1C2=NC(=NC(=C2)C3(CC3)[S@](=N)(=O)C)C4=C5C=CNC5=NC=C4 [AZD6738] (first compound max 10 µM, 7x7, partner max 10 µM) | 0.0282 | -0.0169 | -0.027 | -0.0091 | 0.0034 | -0.0878 | -0.0407 | -0.0491 | -0.0292 | -0.0011 | -0.128 | 0.0135 | -0.0241 | -0.0305 | -0.0516 | 0.0032 | -0.0576 | -0.0276 | -0.0405 | -0.0508
8 | CC1(C)CCC(CN2CCN(c3ccc(C(=O)NS(=O)(=O)c4ccc(NCC5CCOCC5)c([N+](=O)[O-])c4)c(Oc4cnc5[nH]ccc5c4)c3)CC2)=C(c2ccc(Cl)cc2)C1 [Venetoclax] + C[C@@H](Nc1cc(F)cc(F)c1)c1cc(C(=O)N(C)C)cc2c(=O)cc(N3CCOCC3)oc12 [AZD8186] (first compound max 1 µM, 7x7, partner max 3 µM) | -0.0539 | -0.022 | -0.0585 | -0.0359 | -0.0157 | -0.0603 | -0.0321 | -0.0785 | -0.0295 | -0.0739 | -0.0047 | -0.0157 | -0.0271 | -0.0545 | -0.0334 | -0.0165 | -0.0203 | -0.0083 | -0.0425 | -0.025
9 | CC(=O)Nc1cccc(-n2c(=O)n(C3CC3)c(=O)c3c(Nc4ccc(I)cc4F)n(C)c(=O)c(C)c32)c1 [Trametinib] + Cc1nc(-c2cn3c(n2)-c2ccc(-c4cnn(C(C)(C)C(N)=O)c4)cc2OCC3)n(C(C)C)n1 [Taselisib] (first compound max 1 µM, 7x7, partner max 10 µM) | 0.0549 | 0.192 | 0.012 | 0.12 | 0.149 | 0.0655 | 0.232 | 0.105 | 0.0234 | 0.029 | 0.0252 | 0.202 | -0.051 | 0.056 | 0.113 | 0.0116 | 0.177 | 0.0927 | 0.102 | 0.0392
